Measurements as given in ChEMBL document CHEMBL3526147, “Tissue distribution and characterization of drug-related material in rats and dogs after repeated oral administration of casopitant” (Drug Metab Dispos, 2011).

Key:
Set-up in all cases: dosed compound name [14C]Casopitant, route oral
Settings in all cases: in vivo
Blood [1] = test: Drug level in Sprague-Dawley rat blood assessed as free base level at 60 mg/kg/day, po administered as repeat dose measured after 24 hrs on day 27; format: ADME, organism-based
Lung [2] = test: Drug level in Sprague-Dawley rat lung assessed as free base level at 60 mg/kg/day, po administered as repeat dose measured after 24 hrs on day 20; format: ADME, organism-based
[3] = Drug level in beagle dog myocardium assessed as free base level at 40 mg/kg/day, po administered as repeat dose measured after 24 hrs on day 14; format: ADME, organism-based, Canis lupus familiaris
[4] = Drug level in Sprague-Dawley rat skeletal muscle assessed as free base level at 60 mg/kg/day, po administered as single dose measured after 24 hrs on day 1; format: ADME, organism-based, Muscle tissue
[5] = Drug level in Sprague-Dawley rat skeletal muscle assessed as free base level at 60 mg/kg/day, po administered as repeat dose measured after 24 hrs on day 27; format: ADME, organism-based, Muscle tissue
Liver [6] = test: Drug level in Sprague-Dawley rat liver assessed as free base level at 60 mg/kg/day, po administered as single dose measured after 24 hrs on day 1; format: ADME, organism-based
Plasma [7] = test: Drug level in Sprague-Dawley rat plasma assessed as free base level at 60 mg/kg/day, po administered as single dose measured after 2 hrs on day 20; format: ADME, organism-based
Kidney [8] = test: Drug level in Sprague-Dawley rat kidney assessed as free base level at 60 mg/kg/day, po administered as repeat dose measured after 24 hrs on day 27; format: ADME, organism-based
Kidney [9] = test: Drug level in Sprague-Dawley rat kidney assessed as free base level at 60 mg/kg/day, po administered as repeat dose measured after 24 hrs on day 20; format: ADME, organism-based
Plasma [10] = test: Drug level in Sprague-Dawley rat plasma assessed as free base level at 60 mg/kg/day, po administered as repeat dose measured after 24 hrs on day 27; format: ADME, organism-based
Plasma [11] = test: Drug level in beagle dog plasma assessed as free base level at 40 mg/kg/day, po administered as single dose measured after 2 hrs on day 1; format: ADME, organism-based, Canis lupus familiaris
[12] = Drug level in Sprague-Dawley rat myocardium assessed as free base level at 60 mg/kg/day, po administered as repeat dose measured after 24 hrs on day 27; format: ADME, organism-based
[13] = Drug level in Sprague-Dawley rat myocardium assessed as free base level at 60 mg/kg/day, po administered as single dose measured after 24 hrs on day 1; format: ADME, organism-based
Lung [14] = test: Drug level in Sprague-Dawley rat lung assessed as free base level at 60 mg/kg/day, po administered as single dose measured after 24 hrs on day 1; format: ADME, organism-based
Liver [15] = test: Drug level in beagle dog liver assessed as free base level at 40 mg/kg/day, po administered as repeat dose measured after 24 hrs on day 14; format: ADME, organism-based, Canis lupus familiaris
[16] = Drug level in beagle dog blood assessed as free base level at 40 mg/kg/day, po administered as single dose measured after 2 hrs on day 1; format: ADME, organism-based, Canis lupus familiaris
Liver [17] = test: Drug level in Sprague-Dawley rat liver assessed as free base level at 60 mg/kg/day, po administered as repeat dose measured after 24 hrs on day 40; format: ADME, organism-based
Kidney [18] = test: Drug level in Sprague-Dawley rat kidney assessed as free base level at 60 mg/kg/day, po administered as single dose measured after 24 hrs on day 1; format: ADME, organism-based
Plasma [19] = test: Drug level in Sprague-Dawley rat plasma assessed as free base level at 60 mg/kg/day, po administered as single dose measured after 24 hrs on day 1; format: ADME, organism-based
Blood [20] = test: Drug level in Sprague-Dawley rat blood assessed as free base level at 60 mg/kg/day, po administered as repeat dose measured after 24 hrs on day 20; format: ADME, organism-based
Lung [21] = test: Drug level in Sprague-Dawley rat lung assessed as free base level at 60 mg/kg/day, po administered as repeat dose measured after 24 hrs on day 40; format: ADME, organism-based
[22] = Drug level in Sprague-Dawley rat skeletal muscle assessed as free base level at 60 mg/kg/day, po administered as repeat dose measured after 24 hrs on day 20; format: ADME, organism-based, Muscle tissue
Kidney [23] = test: Drug level in Sprague-Dawley rat kidney assessed as free base level at 60 mg/kg/day, po administered as repeat dose measured after 24 hrs on day 40; format: ADME, organism-based
[24] = Drug level in beagle dog lung assessed as free base level at 40 mg/kg/day, po administered as repeat dose measured after 24 hrs on day 14; format: ADME, organism-based, Canis lupus familiaris
Plasma [25] = test: Drug level in beagle dog plasma assessed as free base level at 40 mg/kg/day, po administered as repeat dose measured after 24 hrs on day 14; format: ADME, organism-based, Canis lupus familiaris
[26] = Drug level in beagle dog kidney assessed as free base level at 40 mg/kg/day, po administered as repeat dose measured after 24 hrs on day 14; format: ADME, organism-based, Canis lupus familiaris
[27] = Drug level in beagle dog skeletal muscle assessed as free base level at 40 mg/kg/day, po administered as repeat dose measured after 24 hrs on day 14; format: ADME, organism-based, Canis lupus familiaris, Muscle tissue
Blood [28] = test: Drug level in Sprague-Dawley rat blood assessed as free base level at 60 mg/kg/day, po administered as repeat dose measured after 24 hrs on day 40; format: ADME, organism-based
[29] = Drug level in beagle dog skeletal muscle assessed as free base level at 40 mg/kg/day, po administered as repeat dose measured after 24 hrs on day 34; format: ADME, organism-based, Canis lupus familiaris, Muscle tissue
[30] = Drug level in beagle dog blood assessed as free base level at 40 mg/kg/day, po administered as single dose measured after 24 hrs on day 1; format: ADME, organism-based, Canis lupus familiaris
Plasma [31] = test: Drug level in Sprague-Dawley rat plasma assessed as free base level at 60 mg/kg/day, po administered as repeat dose measured after 24 hrs on day 40; format: ADME, organism-based
[32] = Drug level in beagle dog lung assessed as free base level at 40 mg/kg/day, po administered as repeat dose measured after 24 hrs on day 34; format: ADME, organism-based, Canis lupus familiaris
Blood [33] = test: Drug level in Sprague-Dawley rat blood assessed as free base level at 60 mg/kg/day, po administered as single dose measured after 24 hrs on day 1; format: ADME, organism-based
[34] = Drug level in Sprague-Dawley rat myocardium assessed as free base level at 60 mg/kg/day, po administered as repeat dose measured after 24 hrs on day 20; format: ADME, organism-based
[35] = Drug level in beagle dog blood assessed as free base level at 40 mg/kg/day, po administered as repeat dose measured after 24 hrs on day 34; format: ADME, organism-based, Canis lupus familiaris
[36] = Drug level in beagle dog blood assessed as free base level at 40 mg/kg/day, po administered as repeat dose measured after 24 hrs on day 14; format: ADME, organism-based, Canis lupus familiaris
[37] = Drug level in Sprague-Dawley rat skeletal muscle assessed as free base level at 60 mg/kg/day, po administered as repeat dose measured after 24 hrs on day 40; format: ADME, organism-based, Muscle tissue
Plasma [38] = test: Drug level in beagle dog plasma assessed as free base level at 40 mg/kg/day, po administered as repeat dose measured after 24 hrs on day 34; format: ADME, organism-based, Canis lupus familiaris
Liver [39] = test: Drug level in beagle dog liver assessed as free base level at 40 mg/kg/day, po administered as repeat dose measured after 24 hrs on day 34; format: ADME, organism-based, Canis lupus familiaris
[40] = Drug level in beagle dog myocardium assessed as free base level at 40 mg/kg/day, po administered as repeat dose measured after 24 hrs on day 34; format: ADME, organism-based, Canis lupus familiaris
Plasma [41] = test: Drug level in Sprague-Dawley rat plasma assessed as free base level at 60 mg/kg/day, po administered as single dose measured after 2 hrs on day 1; format: ADME, organism-based
[42] = Drug level in Sprague-Dawley rat myocardium assessed as free base level at 60 mg/kg/day, po administered as repeat dose measured after 24 hrs on day 40; format: ADME, organism-based
Plasma [43] = test: Drug level in Sprague-Dawley rat plasma assessed as free base level at 60 mg/kg/day, po administered as repeat dose measured after 24 hrs on day 20; format: ADME, organism-based
Liver [44] = test: Drug level in Sprague-Dawley rat liver assessed as free base level at 60 mg/kg/day, po administered as repeat dose measured after 24 hrs on day 27; format: ADME, organism-based
[45] = Drug level in beagle dog kidney assessed as free base level at 40 mg/kg/day, po administered as repeat dose measured after 24 hrs on day 34; format: ADME, organism-based, Canis lupus familiaris
Plasma [46] = test: Drug level in beagle dog plasma assessed as free base level at 40 mg/kg/day, po administered as single dose measured after 24 hrs on day 1; format: ADME, organism-based, Canis lupus familiaris
Plasma [47] = test: Drug level in beagle dog plasma assessed as free base level at 40 mg/kg/day, po administered as repeat dose measured after 2 hrs on day 14; format: ADME, organism-based, Canis lupus familiaris
Lung [48] = test: Drug level in Sprague-Dawley rat lung assessed as free base level at 60 mg/kg/day, po administered as repeat dose measured after 24 hrs on day 27; format: ADME, organism-based
[49] = Drug level in beagle dog blood assessed as free base level at 40 mg/kg/day, po administered as repeat dose measured after 2 hrs on day 14; format: ADME, organism-based, Canis lupus familiaris
Liver [50] = test: Drug level in Sprague-Dawley rat liver assessed as free base level at 60 mg/kg/day, po administered as repeat dose measured after 24 hrs on day 20; format: ADME, organism-based

Radiolabel recovery (Blood [1]): 7.67 ugequiv/g
Radiolabel recovery (Lung [2]): 405 ugequiv/g
Radiolabel recovery [3]: 243 ugequiv/g
Radiolabel recovery [4]: 18.3 ugequiv/g
Radiolabel recovery [5]: 10.7 ugequiv/g
Radiolabel recovery (Liver [6]): 121 ugequiv/g
Radiolabel recovery (Plasma [7]): 18.5 ugequiv/g
Radiolabel recovery (Kidney [8]): 64.6 ugequiv/g
Radiolabel recovery (Kidney [9]): 256 ugequiv/g
Radiolabel recovery (Plasma [10]): 1.92 ugequiv/g
Radiolabel recovery (Plasma [11]): 20.8 ugequiv/g
Radiolabel recovery [12]: 32.9 ugequiv/g
Radiolabel recovery [13]: 34.6 ugequiv/g
Radiolabel recovery (Lung [14]): 135 ugequiv/g
Radiolabel recovery (Liver [15]): 1050 ugequiv/g
Radiolabel recovery [16]: 11.3 ugequiv/g
Radiolabel recovery (Liver [17]): 90.4 ugequiv/g
Radiolabel recovery (Kidney [18]): 59.1 ugequiv/g
Radiolabel recovery (Plasma [19]): 5.54 ugequiv/g
Radiolabel recovery (Blood [20]): 14.5 ugequiv/g
Radiolabel recovery (Lung [21]): 96.8 ugequiv/g
Radiolabel recovery [22]: 28.1 ugequiv/g
Radiolabel recovery (Kidney [23]): 39.2 ugequiv/g
Radiolabel recovery [24]: 905 ugequiv/g
Radiolabel recovery (Plasma [25]): 49.2 ugequiv/g
Radiolabel recovery [26]: 308 ugequiv/g
Radiolabel recovery [27]: 99.2 ugequiv/g
Radiolabel recovery (Blood [28]): 3.63 ugequiv/g
Radiolabel recovery [29]: 21.3 ugequiv/g
Radiolabel recovery [30]: 9.4 ugequiv/g
Radiolabel recovery (Plasma [31]): 0.246 ugequiv/g
Radiolabel recovery [32]: 345 ugequiv/g
Radiolabel recovery (Blood [33]): 5.6 ugequiv/g
Radiolabel recovery [34]: 79.6 ugequiv/g
Radiolabel recovery [35]: 9.95 ugequiv/g
Radiolabel recovery [36]: 35.3 ugequiv/g
Radiolabel recovery [37]: 7.74 ugequiv/g
Radiolabel recovery (Plasma [38]): 11.6 ugequiv/g
Radiolabel recovery (Liver [39]): 612 ugequiv/g
Radiolabel recovery [40]: 96.2 ugequiv/g
Radiolabel recovery (Plasma [41]): 6.06 ugequiv/g
Radiolabel recovery [42]: 26.7 ugequiv/g
Radiolabel recovery (Plasma [43]): 12.4 ugequiv/g
Radiolabel recovery (Liver [44]): 240 ugequiv/g
Radiolabel recovery [45]: 102 ugequiv/g
Radiolabel recovery (Plasma [46]): 9.68 ugequiv/g
Radiolabel recovery (Plasma [47]): 69.5 ugequiv/g
Radiolabel recovery (Lung [48]): 136 ugequiv/g
Radiolabel recovery [49]: 47.4 ugequiv/g
Radiolabel recovery (Liver [50]): 545 ugequiv/g
Compound: CC(=O)N1CCN([C@H]2CCN([14C](=O)N(C)[C@H](C)c3cc(C(F)(F)F)cc(C(F)(F)F)c3)[C@@H](c3ccc(F)cc3C)C2)CC1.CS(=O)(=O)O
